Like-named read-outs stand apart in the source and are kept apart here. Bounds are passed on as bounds.

The subject of test [1] is oligodendrocyte precursor cells (OPC) in mixed brain cultures. The test is described as follows: Oligodendrocyte precursor cells (OPC) proliferation, O4+ cell count. It is filed as cell-based, mouse. Particulars: 10 uM. The protocol:
The effect of compounds of the present disclosure was determined on oligodendrocyte precursor cells proliferation (OPC).
Cell culture. Brains of wild type mice (whole brain from 1 or 2 mouse pups) less than postnatal day (P) 2 were isolated and cultured. Briefly, following removal of the meninges, cells were dissociated with 0.25% EDTA/CMF-DMEM and 1% Trypsin (1:1), plated at a density of 75,000 cells/on 0.1 mg/ml poly-L-lysine coated borosilicate glass coverslips in 24-well plates, grown in OPC differentiation media (Oligo media) consisting of DMEM/F12 (Invitrogen 21331-020) supplemented with 1% FBS, 1% N2 Neural Supplement (Invitrogen 17502-048) and PDGF receptor alpha growth factor (Invitrogen 17502-048). Cells were fed every other day and allowed to grow for 7 days in vitro (DIV).
OPCs treatment with compounds of the present disclosure. Cells were treated with compounds of the present disclosure (50-10 μM) or vehicle (0.1% DMSO) starting at 7 DIV. Media was replaced daily with freshly made working solutions of compounds or vehicle for either 48 h (9 DIV total) or 96 h (11 DIV). The 48 h group consisted of 1 coverslip per condition. The 96 h group was treated in duplicate.
Fresh aliquots of compounds of the present disclosure were made up on the day of treatment, briefly, a 50 mM stock was thawed and used to make up fresh 50 μM working solution in Oligo Media. The fresh 50 μM working solution was diluted further in Oligo Media to make 10 μM working solution. Vehicle controls was made up in fresh Oligo Media using the appropriate amount of vehicle (DMSO). Coverslips were stored in clean 24-well plates at 4° C. until fixed-staining. Cells were imaged using Leica DM5500 fluorescent microscope with LAS-X software.
Exposure settings were maintained at the same rate across compounds of the same time-point. Cells were imaged at 20× and 40× magnifications. At least 5 images were taken per condition. Most conditions had at least 5 images that were counted. 20× images were utilized for counting DAPI (cell nuclei) and O4+ cells.
Total DAPI per image for all images was counted using ImageJ as here indicated. • Image was converted to 8 bit • Blue Channel (DAPI) was automatically thresholded by default ImageJ settings • Image noise was reduced by ImageJ>Process>Noise>Despeckle • ImageJ>Process>Binary>Watershed was used to automatically separate merged cell nuclei • ImageJ>Analyze>Analyze Particles was used to obtain final count of DAPI per image • Total number of DAPI-positive cells
Total number of O4+ cells per 20× image was manually counted using Adobe Photoshop: • All cell bodies of OPCs with underlying DAPI stain were counted as an O4+ cell • Total number of O4+ cells were recorded in Excel Spreadsheet O4+ cells in mixed brain cultures of wild type mice <P2 treated with compounds of the present disclosure or vehicle were quantified per condition (time point and concentration). The following formula was used to normalize the total cell counts within a compound as well as across compounds treated for the same duration (48h vs. 96h):
(number of O4+cell counts in Compound X/Average DAPI count for Compound X)*Total Average DAPI count across compounds of same Time Point
Values were plotted as Scatter Interval plots in Origin. Each data point represents a single image from which O4+ cell values were obtained. Data are presented as mean±S.E.
Images are at 20× magnification and represent 1-2 coverslips per group. Scale bar, 50 μm.

Test [2] concerns primary fibroblasts (healthy controls and PA, MMA, BCKDK, PDH, VLCAD, LS, PC, GA, VLCFA, KSS, FXN, HD). The experiment in a line: Measurement of ROS (H2DCFDA) in primary fibroblasts. It is filed as cell-based, human. Particulars: Homo sapiens, procedure Example 812, Assay Condition C, read-out: Decreased ROS by at least 10%. The method, boiled down: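 Patient and healthy-control primary fibroblasts switched to supplemented DMEM 24 h before assay, then treated with compound (10 μM) plus H2DCFDA (22 μM) for 2 h (PA, MMA lines) or 24 h (other lines). Kinetic fluorescence at 492/527 nm over 60 min; only live cells analysed.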

The subject of test [3] is HepG2 cells. The experiment in a line: Glucose uptake (Glucose Uptake-Glo). It is filed as cell-based. Particulars: Homo sapiens, 50 uM, read-out: % increase in Glucose Uptake.
In test [4] the test system is Coronary artery smooth muscle cells (CASM3C system). The test is described as follows: BioMAP CASM3C system (IL-1β, TNFα, IFNγ). The class given is cell-based, human. The conditions noted are these: 10 uM.
The test system of test [5] is Peripheral blood mononuclear cells co-cultured with B-cells (BT system). The conditions noted are these: 1 uM; procedure of Example 829.
Test [6] relates to Pkd1−/− mouse inner medullary collecting duct cells (mIMRFNPKD 5E4). The test is described as follows: mPKD 3D cyst swelling assay (forskolin-induced). The class given is cell-based. Particulars: after 72 hours of forskolin exposure. The protocol:
Cell model and control compounds. mIMCD3 WT cells were obtained via ATCC and modified to create the mIMRFNPKD 5E4 cell line, which has a CRISPR-Cas mediated knockout for Pkd1 as described SLAS Discov. 2017 September; 22(8):974-984. doi: 10.1177/2472555217716056. Cells were cultured in DMEM/F12 (Sigma)+10% FBS (Sigma)+0.5% Pen/Strep (Gibco)+1% GluMax (Gibco). Control compounds used were forskolin (Calbiochem, 344282), Rapamycin (Selleckchem, S1039) and Staurosporin (Selleckchem, S1421).
The 3D mouse cyst swelling assay was performed with Pkd1^−/− mouse inner medullary collecting duct cells (mIMRFNPKD 5E4). The cyst swelling protocol that was used was described previously (SLAS Discov. 2017 September; 22(8):974-984. doi: 10.1177/2472555217716056), with further optimization.
3D culture and compound exposure. mIMRFNPKD 5E4 cells were mixed with Cyst-Gel (OcellO BV). 15 μL of cell-gel mix was pipetted to 384-well plates (Greiner μClear, Greiner Bio-One B.V.) using a CyBio Felix 96/60 robotic liquid dispenser (Analyik Jena AG). Gel-cell mix was plated at a final cell density of 2250 cells per well. After gel polymerization at 37° C. for 30 minutes, 33 μL culture medium was added to each well. Cells were grown in the gel for 96 hours, after which the cells were co-exposed with forskolin (Calbiochem, 344282) and one the following molecules: reference compound Rapamycin (SelleckChem, S1039), toxic control compound Staurosporin (SelleckChem, S1421) or test compounds.
Sample processing. After 72 hours, cultures were fixed with 4% Formaldehyde (Sigma Aldrich) and simultaneously permeabilized with 0.2% Triton-X100 (Sigma Aldrich) and stained with 0.25 μM rhodamine-phalloidin (Sigma Aldrich) and 0.1% Hoechst 33258 (Sigma Aldrich) in 1×PBS (Sigma Aldrich) for 2 days at 4° C., protected from light. After fixation and staining, plates were washed with 1×PBS, sealed with a Greiner SilverSeal (Greiner Bio-One B.V.) and stored at 4° C. prior to imaging.
Imaging and image analysis. Imaging was done using Molecular Devices ImageXpress Micro XLS (Molecular Devices) with a 4× NIKON objective. For each well around 35 images in the Z-direction were made for both channels, capturing the whole z-plane in each image. Image analysis was performed using Ominer™ software (OcellO BV). Cysts were segmented using detection of Hoechst-stained nuclei and Rhodamine-phalloidin-stained cellular f-actin. Cyst area was determined by calculating for the area in px of each object in every in-focus plain. This was averaged per well. (N represented is number of wells) Fraction of apoptotic nuclei as an indicator of toxicity was calculated as the amount of nuclei without actin signal relative to the total amount of nuclei, both as count-measurements. Statistics was done using KNIME Analytics Platform (Konstanz, Germany, http://www.knime.org/), graphs were prepared in GraphPad Prism 6 (GraphPad Software, La Jolla, Calif.).

Test [7] has as its system Venular Endothelial cells (HUVEC) (4H system). The test is described as follows: BioMAP 4H system (IL-4 and histamine). The class given is cell-based, human. Particulars: Homo sapiens, HUVEC, 24 h; 1 uM; procedure of Example 826; read-out: % decrease in VEGFRII.
Test [8] concerns Peripheral blood mononuclear cells co-cultured with B-cells (BT system). The experiment in a line: cells. The conditions noted are these: Homo sapiens, 72 h, read-out: % increase in sIL-6.
The test system of test [9] is Dermal fibroblasts (HDF3CGF system). The experiment in a line: BioMAP HDF3CGF system (IL-1β, TNFα, IFNγ, EGF, bFGF, PDGF-BB). The class given is cell-based, human.
Test [10] has as its system Peripheral blood mononuclear cells co-cultured with venular endothelial cells (HUVEC) (LPS system). The test is described as follows: BioMAP LPS system. The class given is cell-based, human. The conditions noted are these: procedure of Example 827.
Test [11] has as its system Bronchial epithelial cells co-cultured with dermal fibroblast (BF4T system). The experiment in a line: BioMAP BF4T system (TNFα and IL-4). Particulars: Homo sapiens, 24 h; 10 uM; procedure of Example 830; read-out: % increase in VCAM-1. It is filed as cell-based, human.
Test [12] relates to HepG2 cells. The experiment in a line: Mitochondrial membrane potential (MITO-ID MP detection Kit). It is filed as cell-based. Particulars: Homo sapiens, 168 h, 10 uM, 7 days, read-out: % decrease in Mitochondrial Membrane Potential. The method, boiled down:
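Cells plated at 160000 cells/mL in DMEM with 10% FBS and 1% Pen-Strep, adhered overnight at 37° C., 5% CO2. Exposure to test compounds (50-10 μM) or 0.2% DMSO for 7 days without media change; membrane potential measured with MITO-ID MP detection kit per manufacturer.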

Test [13] has as its system HepG2 cells. The test is described as follows: MitoBiogenesis In-Cell ELISA (COX-I, SDH-A). It is filed as cell-based. The conditions noted are these: Homo sapiens, 168 h, 50 uM, 7 days, read-out: % increase in Mitochondrial Biogenesis. The text has this: We determined the effect of compounds of the present disclosure on the levels of two mitochondrial proteins using MitoBiogenesis™ In-Cell ELISA Kit (Abcam ab110216) according to manufacturer's instructions. The two proteins are each subunits of a different oxidative phosphorylation enzyme complex, one protein being subunit I of Complex IV (COX-1), which is mitochondrial (mt)DNA-encoded, and the other being the 70 kDa subunit of Complex II (SDH-A), which is nuclear (n)DNA-encoded. Complex IV includes several proteins which are encoded in the mitochondrion, while the proteins of Complex II are entirely encoded in the nucleus. HepG2 cells (ATCC, HB-8065) were cultured (5% CO2 at 37° C.) and plated in Poly-D-Lysine 384-Well plate (Corning, 356663) at a density of 40,000 cells/mL in 50 μL. Culture and assay media consisted of DMEM (Gibco, 11995-065) supplemented with 1% Penicillin-Streptomycin and 10% FBS (Hyclone, SV30087.03). Cells were allowed to settle for 30 min at room temperature and further incubated overnight (37° C. and 5% CO2) for adherence. Next day, 50-5 μM of the negative control Chloramphenicol (Selleck, S1677), test compounds (50-10 μM) and vehicle DMSO (0.2%) were added at the recommended volumes to the 384-well plate for 7 days without media change using a Tecan compound dispenser. All the solutions and wash buffers were prepared and dispensed according to manufacturer's volumes for a 384-well plate format. Effects of compounds on mtDNA-encoded protein expression (COX-I) and nuclear DNA-encoded mitochondrial protein expression (SDH-A) were expressed as relative signal (nm) to vehicle of a n=2 per conditions.
On the technique in general: ELISA stands for enzyme-linked immunosorbent assay.

As to `COC(=O)/C=C/C(=O)SCCNC(=O)CCNC(=O)[C@H](O)C(C)(C)CO` [Compound 20, Methyl (R,E)-4-((2-(3-(2,4-dihydroxy-3,3-dimethylbutanamido)propanamido)ethyl)thio)-4-oxobut-2-enoate], the “% Increase OPC proliferation” value in [1] is listed as no less than 25%. The inhibition at 10 µM is no less than 10% in test [2] (Fibroblast, NPC1 GM22879) and no less than 10% in test [2] (FXN GM04078).
As for `COC(=O)CCC(=O)CC(=O)SCCNC(=O)CCNC(=O)[C@H](O)C(C)(C)COC(C)=O` [Compound 141, methyl 6-[(2-[3-[(2R)-4-(acetyloxy)-2-hydroxy-3,3-dimethylbutanamido]propanamido]ethyl)sulfanyl]-4,6-dioxohexanoate], the activation at 50 µM in test [3] was no less than 30%. Further, the “% increase in Proliferation” value in test [4] (procedure of Example 832) is listed as no less than 10%. Besides, the inhibition at 10 µM in [4] (Homo sapiens, 24 h, read-out: % decrease in Thrombomodulin) was no less than 10%; in [10] (Homo sapiens, HUVEC, 24 h, 10 uM, read-out: % decrease in sPGE2) it was no less than 10%. For the same compound, the “% decrease in B-cell proliferation” value in [5] was no less than 10%. In addition, the “% prevention of forskolin-induced cyst swelling” value in test [6] (50 uM) is no less than 10%. The inhibition at 1 µM in test [7] is no less than 20%; in test [9] (Homo sapiens, Fibroblast, 24 h, 1 uM, read-out: % decrease in Collagen III) it was no less than 10%. Further, the activation at 1 µM in test [8] was no less than 20%. Also, in [9] (1 uM, procedure of Example 833), the “% decrease in Collagen I” value is no less than 10%. Further, in test [9] (10 uM), the “% increase in SRB” value was no less than 10%. Further, the “% decrease in M-CSF” value in test [10] (1 uM) is on record as no less than 10%. For the same compound, the activation at 10 µM in test [10] (Homo sapiens, HUVEC, 24 h, 10 uM, read-out: % increase in sTNFα) was no less than 10%; in test [11], no less than 20%.
With `COC(=O)CCC(=O)SCCNC(=O)CCNC(=O)[C@H](O)C(C)(C)COP1(=O)OCCO1` [Compound 1308], in test [12], the inhibition at 10 µM is greater than 50%. Also, the “% prevention of forskolin-induced cyst swelling” value in test [6] (10 uM) was no less than 10%. In addition, the activation at 50 µM in [13] is greater than 5%.
